{"source": "paper PMC2847595", "about": "(Nuclear medicine and biology, 2010)", "key": {"[1]": {"test": "Ex vivo radio-HPLC analysis of mouse plasma after radiotracer injection", "type": "in vivo", "conditions": "for plasma concentration: 30 min after radiotracer injection; for increase of plasma concentration by ketoconazole pretreatment: both wild-type and knockout mice, ketoconazole 50 mg/kg i.p."}, "[2]": {"test": "Ex vivo radio-HPLC analysis of mouse whole brain after radiotracer injection", "type": "in vivo", "conditions": "for increase of brain concentration by ketoconazole pretreatment: ketoconazole 50 mg/kg i.p.; for brain concentration: 30 min after radiotracer injection"}, "P-glycoprotein (P-gp)": {"test_system": "P-glycoprotein (P-gp)", "conditions": "cited from earlier work"}, "CYP3A4": {"test_system": "CYP3A4", "conditions": "cited from earlier work"}, "cDNA-expressed CYP3A4": {"test_system": "cDNA-expressed CYP3A4", "conditions": "in vitro; cited from earlier work"}, "[3]": {"conditions": "P-gp knockout mice, baseline (no ketoconazole)"}, "[4]": {"conditions": "P-gp knockout mice, ketoconazole 50 mg/kg i.p. pretreatment"}, "[5]": {"conditions": "wild-type mice, baseline (no ketoconazole)"}, "[6]": {"conditions": "wild-type mice, ketoconazole 50 mg/kg i.p. pretreatment"}, "[7]": {"conditions": "P-gp knockout mice, after [11C]loperamide"}, "[8]": {"conditions": "wild-type mice, after [11C]loperamide"}}, "data": [{"molecule": "CN([11CH3])C(=O)C(CCN1CCC(O)(c2ccc(Cl)cc2)CC1)(c1ccccc1)c1ccccc1", "note": "[[^11C]dLop] [[N-methyl-^11C]N-desmethyl-loperamide]", "values": [{"measurement": "plasma concentration", "setting": "[1]; [3]", "result": "2.26 ± 0.54", "unit": "% SUV"}, {"measurement": "plasma concentration", "setting": "[1]; [4]", "result": "3.4 ± 0.4", "unit": "% SUV"}, {"measurement": "increase of plasma concentration by ketoconazole pretreatment", "setting": "[1]", "result": "about two-fold"}, {"measurement": "plasma concentration", "setting": "[1]; [5]", "result": "1.36 ± 0.18", "unit": "% SUV"}, {"measurement": "plasma concentration", "setting": "[1]; [6]", "result": "3.3 ± 0.4", "unit": "% SUV"}, {"measurement": "increase of brain concentration by ketoconazole pretreatment", "setting": "[2]; [7]", "result": "two-fold"}, {"measurement": "brain concentration", "setting": "[2]; P-gp knockout mice, baseline", "result": "37.1 ± 7.3", "unit": "% SUV"}, {"measurement": "brain concentration", "setting": "[2]; [4]", "result": "37.9 ± 6.7", "unit": "% SUV"}, {"measurement": "effect of ketoconazole pretreatment on brain concentration", "setting": "[2]; either knockout or wild-type mice, after [11C]dLop", "result": "little effect"}, {"measurement": "effect of ketoconazole pretreatment on brain concentration", "setting": "[2]; [8]", "result": "did not increase"}, {"measurement": "brain concentration", "setting": "[2]; wild-type mice, baseline", "result": "1.93 ± 0.52", "unit": "% SUV"}, {"measurement": "brain concentration", "setting": "[2]; [6]", "result": "2.2 ± 0.5", "unit": "% SUV"}, {"measurement": "P-gp substrate", "setting": "P-glycoprotein (P-gp)", "result": "avid substrate for P-gp"}]}, {"molecule": "CN([11CH3])C(=O)C(CCN1CCC(O)(c2ccc(Cl)cc2)CC1)(c1ccccc1)c1ccccc1", "note": "[[^11C]loperamide] [[N-methyl-^11C]loperamide]", "values": [{"measurement": "plasma concentration", "setting": "[1]; [3]", "result": "7.37 ± 4.55", "unit": "% SUV"}, {"measurement": "plasma concentration", "setting": "[1]; [4]", "result": "17.1± 9.0", "unit": "% SUV"}, {"measurement": "increase of plasma concentration by ketoconazole pretreatment", "setting": "[1]", "result": "about two-fold"}, {"measurement": "plasma concentration", "setting": "[1]; [5]", "result": "10.3 ± 2.1", "unit": "% SUV"}, {"measurement": "plasma concentration", "setting": "[1]; [6]", "result": "17.6 ± 5.9", "unit": "% SUV"}, {"measurement": "increase of brain concentration by ketoconazole pretreatment", "setting": "[2]; [7]", "result": "about two-fold"}, {"measurement": "brain concentration", "setting": "[2]; P-gp knockout mice, baseline", "result": "20.4 ± 3.2", "unit": "% SUV"}, {"measurement": "brain concentration", "setting": "[2]; [4]", "result": "43.9 ± 14.0", "unit": "% SUV"}, {"measurement": "effect of ketoconazole pretreatment on brain concentration", "setting": "[2]; [8]", "result": "no effect"}, {"measurement": "brain concentration", "setting": "[2]; wild-type mice, baseline", "result": "2.86 ± 0.97", "unit": "% SUV"}, {"measurement": "brain concentration", "setting": "[2]; [6]", "result": "2.9± 0.7", "unit": "% SUV"}]}, {"molecule": "CC(=O)N1CCN(c2ccc(OCC3COC(Cn4ccnc4)(c4ccc(Cl)cc4Cl)O3)cc2)CC1", "note": "(stereo not drawn) [ketoconazole]", "values": [{"measurement": "Ki", "setting": "CYP3A4", "result": "[…]"}, {"measurement": "inhibition of the N-demethylation of loperamide", "setting": "cDNA-expressed CYP3A4", "result": 90, "unit": "%"}]}, {"molecule": "CN(C)C(=O)C(CCN1CCC(O)(c2ccc(Cl)cc2)CC1)(c1ccccc1)c1ccccc1", "note": "[loperamide, reference compound]", "values": [{"measurement": "P-gp substrate", "setting": "P-glycoprotein (P-gp)", "result": "avid substrate for P-gp"}]}]}
